# Data published in PubChem BioAssay (NCI).
# Values joined by “and” are separate entries in the source; they are usually repeats but may differ in a detail not shown here. Equal values may be shown once.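 The compound was tested at five concentrations on cells cultured in 96-well plates, with a 48-hour exposure period. Here, GI50 denotes the concentration required for 50% inhibition of growth. TGI: concentration producing complete growth inhibition.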
# Legend:
# Assay in all cases: NCI tumour cell line growth inhibition, 48 h
# RXF-631 renal = test system: RXF-631 renal
# SN12K1 renal = test system: SN12K1 renal
# P388/ADR leukemia = test system: P388/ADR leukemia
# P388 leukemia = test system: P388 leukemia
smiles,measurement,setting,value
Cc1cc(Cl)ccc1NC(=O)C(=O)Cc1occc(=O)c1O,TGI,RXF-631 renal,> 100000 nM
C(=N/NC1=NCCN1)/c1c2ccccc2c(/C=N\NC2=NCCN2)c2ccccc12,GI50,SN12K1 renal,68.8 nM
same,TGI,SN12K1 renal,933 nM and 222 nM
same,GI50,P388/ADR leukemia,86600 nM
same,TGI,P388/ADR leukemia,116000 nM
same,GI50,P388 leukemia,56.1 nM
same,TGI,P388 leukemia,571 nM and 1080 nM
Oc1ccc(Cn2c(-c3ccc(O)cc3)nc3ccccc32)cc1,TGI,RXF-631 renal,> 100000 nM
CC(C)c1cccc(C(C)C)c1NC(=O)C(=O)C1SC(=S)NC1=O (centres undefined),TGI,RXF-631 renal,> 100000 nM
